# Measured values published in patent publication US20230321074A1, “USE OF CHIAURANIB IN COMBINATION WITH IMMUNE CHECKPOINT INHIBITOR IN ANTITUMOR THERAPY” (SHENZHEN CHIPSCREEN BIOSCIENCES, CO., LTD., priority 2020, published 2023).
# Several values for one entry are separate records, joined by “and”; a condition that tells them apart may be missing. Identical values can stand only once. Entries after “also recorded” stand apart in the source; their conditions may differ.
# Legend:
# [1] = test system: colonic cancer cell line CT-26; assay: Efficacy on tumor Balb/c mouse models inoculated with colonic cancer cell line CT-26 (tumor volume); type: in vivo; conditions: CT-26 in Balb/c mice; chiauranib 20 mg/kg intragastric once a day; PD-1 antibody 10 mg/kg i.p. twice a week; vs solvent control
# Experimental: A large number of CT-26 cells were cultured and kept in a logarithmic growth state. After the number of cells reached a required level, the cells were digested and collected by trypsin, thoroughly washed twice with a large amount of PBS to remove trypsin and serum components, centrifuged at room temperature at 800 rpm for 10 min, and a supernatant was discarded. The cells were resuspended in DMEM without FBS, and the cell concentration was adjusted to 5×10^6 cells/mL.
# Under sterile conditions, the cell suspension was injected subcutaneously into the back of Balb/c mice at 100 μL/injection, one injection per mouse. […]
# (§1) 8 days after cell inoculation, tumors grew to an average volume of about 100 mm^3, and the tumor-bearing mice were randomly divided into four groups (9 mice per group), that is, a solvent control group, a chiauranib group (20 mg/kg, intragastric administration, once a day), a PD-1 antibody group (10 mg/kg, intraperitoneal injection, twice a week), and a chiauranib and PD-1 antibody combined administration group, marked, raised in separate cages, administered daily in groups, and observed for tumor formation. The longest diameter (length) and the widest diameter (width) perpendicular to the longest diameter of the tumor was measured by using a vernier caliper every 2 days, and the tumor volume was calculated according to a formula: TS=length×(width)^2/2, and recorded. […]
# [2] = test system: spleen lymphocyte subsets CD4 and CD8; assay: Proportions of spleen lymphocyte subsets in CT-26 tumor-bearing mice (flow cytometry); type: in vivo, mouse; conditions: CT-26 tumor-bearing Balb/c mice; chiauranib 20 mg/kg intragastric once a day; PD-1 antibody 10 mg/kg i.p. twice a week; after last administration on 14th day
# Experimental: as §1, with “recorded. The mice were subjected to intragastric administration once a day regularly, and after the last administration on the 14th day, the mice were sacrificed to take the spleens and make a single cell suspension. 1×10^6 spleen cells were taken and stained with fluorescein labelled anti-CD4 and CD8 antibodies (1:200) at 4° C. for 30 min. After being washed, the cells were resuspended in PBS, and detected by using a flow cytometer FACSCanto II.” for “recorded.”
# [3] = test system: mouse liver cancer H22 cells; assay: Efficacy on female BALB/c mouse models subcutaneously transplanted with mouse liver cancer H22 cell line; type: in vivo
# Experimental: Mouse liver cancer H22 cells (purchased from CCTCC; cell No. TC-00011) were cultured in an RPMI-1640 medium (purchased from Gibco) containing 10% fetal bovine serum. H22 cells in exponential growth phase were collected, resuspended in PBS to an appropriate concentration, and subcutaneously inoculated into mice. Female mice were subcutaneously inoculated with 1×10^6 H22 cells on the right front side. After tumors grew to an average volume of 104 mm^3, the mice were randomly grouped (see Table 1) according to the tumor size, administration was carried out on the day of grouping, and the day of inoculation of tumor cells was defined as day 0.
# On the 19th day of the experiment (day 15 of administration in groups), an average tumor volume of the solvent control group was measured to be 2060.99 mm^3, the experiment was completed, photos of the tumor-bearing mice were taken, the tumors were taken out and weighed, and photos of the tumors were taken. A formula for calculating tumor volume: tumor volume (mm^3)=1/2×(a×b^2) (where, a represents a long diameter, and b represents a short diameter).
# [4] = Body weight, deaths and tolerability in H22 tumor-bearing BALB/c mice; type: in vivo; conditions: H22 model
# [5] = test system: MC38-hPD-L1 colon cancer cells; assay: Efficacy on B-hPD-1/hPD-L1 humanized mouse MC38-hPD-L1 colon cancer model; type: in vivo; conditions: for inhibitory effect on growth of MC38-hPD-L1 subcutaneously transplanted tumors (experiment summary): at test doses: chiauranib 2.5 mg/kg; for inhibitory effect on growth of MC38-hPD-L1 subcutaneously transplanted tumors (experiment summary) / inhibitory effect on growth of MC38-hPD-L1 subcutaneously transplanted tumors (tumor volume) / inhibitory effect on growth of MC38-hPD-L1 subcutaneously transplanted tumors (tumor weight): reference PD-L1 antibody 1 mg/kg and 3 mg/kg; for Tumor volume (mm^3) before administration: baseline; for Tumor volume (mm^3) before administration / Tumor volume (mm^3) Day 27 of administration in groups / Tumor weight: mean ± standard error; for inhibitory effect on growth of MC38-hPD-L1 subcutaneously transplanted tumors (tumor volume): day 27, P<0.05 vs control; for inhibitory effect on growth of MC38-hPD-L1 subcutaneously transplanted tumors (tumor volume) / inhibitory effect on growth of MC38-hPD-L1 subcutaneously transplanted tumors (tumor weight): chiauranib 2.5 mg/kg; for inhibitory effect on growth of MC38-hPD-L1 subcutaneously transplanted tumors (tumor weight) / Tumor weight: end of experiment; for inhibitory effect on growth of MC38-hPD-L1 subcutaneously transplanted tumors (tumor weight): P<0.05 vs control; for Tumor weight / TGITV (%) / TGITW (%): day 27; for TGITV (%): tumor inhibition rate by tumor volume; for TGITW (%): tumor weight inhibition
# Experimental: Mouse colon cancer MC38 cells were purchased from Shunran Biology, cultured in an incubator under 5% CO2 at 37° C., and a medium was Dulbecco's Modified Eagle's Medium containing 10% inactivated fetal bovine serum. Biocytogen carried out genetic modification on the MC38 cells to enable the MC38 cells to overexpress human PD-L1, and knocked out mouse PD-L1, and the cells were named MC38-hPD-L1 cells. A reference PD-L1 antibody used in the experiment was constructed and produced by the in-house laboratory according to a sequence of the marketed antibody drug MPDL3280A.
# (§2) A certain number of cells were cultured and collected, the MC38-hPD-L1 cells resuspended in PBS were subcutaneously inoculated into B-hPD-1/hPD-L1 humanized mice on the right side at a concentration of 5×10^5 cells/0.1 mL and a dose of 0.1 mL/mouse. After an average tumor volume reached about 104 mm^3, appropriate mice were selected according to tumor volume and body weight, and uniformly divided into 6 experimental groups, 8 mice per group, and administration was carried out on the day of grouping.
# Results were recorded, tumor inhibition rates (TGITV) were calculated, and statistical analysis between groups was carried out according to tumor volume.
# [6] = Body weight and tolerability in B-hPD-1/hPD-L1 humanized mice transplanted with MC38-hPD-L1; type: in vivo, mouse; conditions: for Body weight (g) before administration / Body weight change (g) Day 27 of administration / Body weight (g) Day 27 of administration in groups: MC38-hPD-L1 model; for Body weight (g) before administration: baseline; for Body weight (g) before administration / Body weight (g) Day 27 of administration in groups: mean ± standard error; for toxic side effects on animals / safety: at test doses: chiauranib 2.5 mg/kg, reference PD-L1 antibody 1 mg/kg and 3 mg/kg
# Experimental: as §2
# [7] = cited from earlier work
# [8] = chiauranib 5 mg/kg p.o. QD, mouse PD-1 antibody 5 mg/kg i.p. BIW
# [9] = groups G2, G3, G5 (chiauranib 2.5 mg/kg; Reference PD-L1 antibody 1 mg/kg)
# [10] = chiauranib 2.5 mg/kg p.o. QD, Reference PD-L1 antibody 1 mg/kg i.p. Q3D
# [11] = Reference PD-L1 antibody 3 mg/kg i.p. Q3D, chiauranib 2.5 mg/kg p.o. QD in the combination
# [12] = groups G4, G6 (Reference PD-L1 antibody 3 mg/kg; chiauranib 2.5 mg/kg in the combination)
Compound,inhibitory effect on growth of MC38-hPD-L1 subcutaneously transplanted tumors (experiment summary) [5],"Tumor volume (mm^3) before administration [5, 9] [mm^3]","Tumor volume (mm^3) Day 27 of administration in groups [5, 10] [mm^3]",inhibitory effect on growth of MC38-hPD-L1 subcutaneously transplanted tumors (tumor volume) [5],inhibitory effect on growth of MC38-hPD-L1 subcutaneously transplanted tumors (tumor weight) [5],"Tumor weight [5, 10] [g]","TGITV (%) [5, 10] [%]","TGITW (%) [5, 10] [%]","Body weight (g) before administration [6, 9] [g]","Body weight change (g) Day 27 of administration [6, 10]","Body weight (g) Day 27 of administration in groups [6, 10] [g]",toxic side effects on animals / safety [6],also measured
"COc1ccc2c(Oc3ccc4c(C(=O)Nc5ccccc5N)cccc4c3)ccnc2c1 [chiauranib, Chiauranib]",significant inhibitory effects,104 ± 4,1021 ± 158,significant inhibitory effects,significant inhibitory effects,0.837 ± 0.108,58.6,61.7,21.1 ± 0.3,+3.1 g,24.2 ± 0.6,do not produce toxic side effects to animals; also recorded: do not produce toxic and side effects on animals,"relative tumor inhibition rate [1]: 39%; average proportion of spleen lymphocyte subset CD4 [2]: 9.9%; average proportion of spleen lymphocyte subset CD8 [2]: 6.1%; TGI (%) Day 19 (relative tumor inhibition rate) ([3]; (1 - T/C) x 100%, chiauranib 5 mg/kg p.o. QD, mouse PD-1 antibody 5 mg/kg i.p. BIW): 26%; T/C (%) Day 19 ([3]; TRTV/CRTV x 100%, chiauranib 5 mg/kg p.o. QD, mouse PD-1 antibody 5 mg/kg i.p. BIW): 74%; Tumor volume (mm^3) Day 19 ([3]; day 15 of administration, chiauranib 5 mg/kg p.o. QD x 15 days, mouse PD-1 antibody 5 mg/kg i.p. BIW x 5, mean ± standard error): 1527.40 mm^3 and 1527.40 ± 145.56 mm^3; Tumor volume (mm^3) Day 5 ([3]; day of grouping, baseline before treatment, mean ± standard error): 104.09 ± 2.73 mm^3; RTV ([3]; relative tumor volume Vt/V0, Day 19, chiauranib 5 mg/kg p.o. QD, mouse PD-1 antibody 5 mg/kg i.p. BIW): 14.51; Body weight change rate (%) Day 19 [4, 8]: 5.59%; Number of animals of experiment at the beginning/end [4, 8]: 10/10; Average body weight (g) Day 5 ([4]; day of grouping, baseline, mean ± standard error): 21.3 ± 0.3 g; Average body weight (g) Day 19 ([4]; end of experiment, chiauranib 5 mg/kg p.o. QD, mouse PD-1 antibody 5 mg/kg i.p. BIW, mean ± standard error): 22.4 ± 0.3 g"
Reference PD-L1 antibody: constructed and produced by the in-house laboratory according to a sequence of the marketed antibody drug MPDL3280A,significant inhibitory effects,104 ± 4,1469 ± 144,significant inhibitory effects,significant inhibitory effects,1.316 ± 0.106,38.5,39.8,21.6 ± 0.3,+3.8 g,25.4 ± 0.4,do not produce toxic side effects to animals; also recorded: do not produce toxic and side effects on animals,"Tumor volume (mm^3) Day 27 of administration in groups [5, 11]: 1207 ± 195 mm^3; Tumor volume (mm^3) before administration [5, 12]: 104 ± 3 mm^3; Tumor weight [5, 11]: 1.182 ± 0.199 g; TGITV (%) [5, 11]: 50.3%; TGITW (%) [5, 11]: 45.9%; Body weight change (g) Day 27 of administration [6, 11]: +3.7 g; Body weight (g) Day 27 of administration in groups [6, 11]: 25.0 ± 0.5 g; Body weight (g) before administration [6, 12]: 21.3 ± 0.5 g"
"avelumab+BSC: PD-L1 antibody drug avelumab (Bavencio, Pfizer and Merck KGaA) plus best supportive care",,,,,,,,,,,,,"median OS ([7]; patients with advanced UC after platinum-based chemotherapy): 21.4 months; overall survival (OS) hazard ratio [HR] ([7]; vs BSC alone, 95% CI 0.56, 0.86, 1-sided p=0.0005, all enrolled patients): 0.69; increase of OS ([7]; vs BSC group): more than 7 months"
